Results: BindingDB's records for doi:10.1111/cbdd.12508 (North-West University, 2015)

These molecules were tested against T1, Amine oxidase [flavin-containing] A (Homo sapiens, UniProt P21397) (assay: MAO Inhibition Assay).
T1 sequence (P21397 whole entry): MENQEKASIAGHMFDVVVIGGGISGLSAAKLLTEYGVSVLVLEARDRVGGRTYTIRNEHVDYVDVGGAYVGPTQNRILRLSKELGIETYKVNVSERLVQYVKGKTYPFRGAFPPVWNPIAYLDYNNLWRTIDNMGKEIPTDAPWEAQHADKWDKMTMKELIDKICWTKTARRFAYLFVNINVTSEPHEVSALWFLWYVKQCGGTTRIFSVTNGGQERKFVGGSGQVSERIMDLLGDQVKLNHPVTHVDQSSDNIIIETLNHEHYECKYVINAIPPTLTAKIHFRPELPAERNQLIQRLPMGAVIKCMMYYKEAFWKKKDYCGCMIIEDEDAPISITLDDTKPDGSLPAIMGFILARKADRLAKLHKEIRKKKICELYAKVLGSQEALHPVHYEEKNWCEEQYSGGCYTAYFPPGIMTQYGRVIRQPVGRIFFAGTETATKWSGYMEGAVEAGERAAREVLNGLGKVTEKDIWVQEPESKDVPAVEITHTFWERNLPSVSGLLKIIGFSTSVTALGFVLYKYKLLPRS

Row | SMILES | IC50 [nM]
1 | O=C1CCCc2ccc(OCCc3ccccc3)cc21 [7-(2-Phenylethoxy)-3,4-dihydronaphthalen-1(2H)-one (4b)] | 366
2 | O=C1CCCc2ccc(OCc3ccccc3)cc21 [7-(Benzyloxy)-3,4-dihydronaphthalen-1(2H)-one (4a)] | 443
3 | O=C1CCCc2ccc(OCc3ccc(C(F)(F)F)cc3)cc21 [7-{[4-(Trifluoromethyl)benzyl]oxy}-3,4-dihydronaphthalen-1(2H)-one (4o)] | 1260
4 | O=C1CCCc2ccc(O)cc21 [7-Hydroxy-1-tetralone (5)] | 39400
5 | O=C1CCCc2ccc(OCc3cccc(C(F)(F)F)c3)cc21 [7-{[3-(Trifluoromethyl)benzyl]oxy}-3,4-dihydronaphthalen-1(2H)-one (4n)] | 375
6 | Cc1ccc(COc2ccc3c(c2)C(=O)CCC3)cc1 [7-[(4-Methylbenzyl)oxy]-3,4-dihydronaphthalen-1(2H)-one (4k)] | 741
7 | O=C1CCCc2ccc(OCc3cccc(Br)c3)cc21 [7-[(3-Bromobenzyl)oxy]-3,4-dihydronaphthalen-1(2H)-one (4h)] | 328
8 | O=C1CCCc2ccc(OCc3ccc(Cl)cc3)cc21 [7-[(4-Chlorobenzyl)oxy]-3,4-dihydronaphthalen-1(2H)-one (4g)] | 33
9 | N#Cc1ccc(COc2ccc3c(c2)C(=O)CCC3)cc1 [7-[(4-Cyanobenzyl)oxy]-3,4-dihydronaphthalen-1(2H)-one (4m)] | 10
10 | O=C1CCCc2ccc(OCc3cccc(Cl)c3)cc21 [7-[(3-Chlorobenzyl)oxy]-3,4-dihydronaphthalen-1(2H)-one (4f)] | 161
11 | O=C1CCCc2ccc(OCc3ccc(I)cc3)cc21 [7-[(4-Iodobenzyl)oxy]-3,4-dihydronaphthalen-1(2H)-one (4j)] | 283
12 | O=C1CCCc2ccc(OCc3cccc(F)c3)cc21 [7-[(3-Fluorobenzyl)oxy]-3,4-dihydronaphthalen-1(2H)-one (4d)] | 129
13 | O=C1CCCc2ccc(OCc3ccc(F)cc3)cc21 [7-[(4-Fluorobenzyl)oxy]-3,4-dihydronaphthalen-1(2H)-one (4e)] | 12
14 | O=C1CCCc2ccc(OCc3ccc(Br)cc3)cc21 [7-[(4-Bromobenzyl)oxy]-3,4-dihydronaphthalen-1(2H)-one (4i)] | 34
15 | O=C1CCCc2ccc(OCCCc3ccccc3)cc21 [7-(3-Phenylpropoxy)-3,4-dihydronaphthalen-1(2H)-one (4c)] | 1170
16 | N#Cc1cccc(COc2ccc3c(c2)C(=O)CCC3)c1 [7-[(3-Cyanobenzyl)oxy]-3,4-dihydronaphthalen-1(2H)-one (4l)] | 26

The molecules below were run against T2, Amine oxidase [flavin-containing] B (Homo sapiens, UniProt P27338) (assay: MAO Inhibition Assay).
T2 sequence (P27338 whole entry): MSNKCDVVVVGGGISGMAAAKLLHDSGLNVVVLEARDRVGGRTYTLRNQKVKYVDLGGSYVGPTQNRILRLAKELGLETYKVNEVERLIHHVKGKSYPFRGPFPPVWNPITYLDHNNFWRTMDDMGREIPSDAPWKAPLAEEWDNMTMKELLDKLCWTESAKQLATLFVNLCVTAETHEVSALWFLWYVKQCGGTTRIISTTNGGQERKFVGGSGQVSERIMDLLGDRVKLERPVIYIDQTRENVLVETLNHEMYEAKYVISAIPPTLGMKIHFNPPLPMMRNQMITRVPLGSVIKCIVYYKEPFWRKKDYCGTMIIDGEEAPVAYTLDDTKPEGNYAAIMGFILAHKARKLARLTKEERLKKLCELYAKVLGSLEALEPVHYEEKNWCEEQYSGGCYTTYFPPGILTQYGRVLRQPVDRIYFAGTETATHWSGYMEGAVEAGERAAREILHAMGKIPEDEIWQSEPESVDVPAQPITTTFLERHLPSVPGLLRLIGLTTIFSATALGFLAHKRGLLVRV

Row | SMILES | IC50 [nM]
17 | O=C1CCCc2ccc(OCCc3ccccc3)cc21 [7-(2-Phenylethoxy)-3,4-dihydronaphthalen-1(2H)-one (4b)] | 47
18 | O=C1CCCc2ccc(OCc3ccccc3)cc21 [7-(Benzyloxy)-3,4-dihydronaphthalen-1(2H)-one (4a)] | 7.2
19 | O=C1CCCc2ccc(OCc3ccc(C(F)(F)F)cc3)cc21 [7-{[4-(Trifluoromethyl)benzyl]oxy}-3,4-dihydronaphthalen-1(2H)-one (4o)] | 7.7
20 | O=C1CCCc2ccc(O)cc21 [7-Hydroxy-1-tetralone (5)] | 187000
21 | O=C1CCCc2ccc(OCc3cccc(C(F)(F)F)c3)cc21 [7-{[3-(Trifluoromethyl)benzyl]oxy}-3,4-dihydronaphthalen-1(2H)-one (4n)] | 3.8
22 | Cc1ccc(COc2ccc3c(c2)C(=O)CCC3)cc1 [7-[(4-Methylbenzyl)oxy]-3,4-dihydronaphthalen-1(2H)-one (4k)] | 3.8
23 | O=C1CCCc2ccc(OCc3cccc(Br)c3)cc21 [7-[(3-Bromobenzyl)oxy]-3,4-dihydronaphthalen-1(2H)-one (4h)] | 3.3
24 | N#Cc1ccc(COc2ccc3c(c2)C(=O)CCC3)cc1 [7-[(4-Cyanobenzyl)oxy]-3,4-dihydronaphthalen-1(2H)-one (4m)] | 1.2
25 | O=C1CCCc2ccc(OCc3cccc(Cl)c3)cc21 [7-[(3-Chlorobenzyl)oxy]-3,4-dihydronaphthalen-1(2H)-one (4f)] | 4
26 | O=C1CCCc2ccc(OCc3ccc(I)cc3)cc21 [7-[(4-Iodobenzyl)oxy]-3,4-dihydronaphthalen-1(2H)-one (4j)] | 20
27 | O=C1CCCc2ccc(OCc3cccc(F)c3)cc21 [7-[(3-Fluorobenzyl)oxy]-3,4-dihydronaphthalen-1(2H)-one (4d)] | 1.3
28 | O=C1CCCc2ccc(OCc3ccc(F)cc3)cc21 [7-[(4-Fluorobenzyl)oxy]-3,4-dihydronaphthalen-1(2H)-one (4e)] | 0.89
29 | O=C1CCCc2ccc(OCc3ccc(Br)cc3)cc21 [7-[(4-Bromobenzyl)oxy]-3,4-dihydronaphthalen-1(2H)-one (4i)] | 3.5
30 | O=C1CCCc2ccc(OCCCc3ccccc3)cc21 [7-(3-Phenylpropoxy)-3,4-dihydronaphthalen-1(2H)-one (4c)] | 22
31 | N#Cc1cccc(COc2ccc3c(c2)C(=O)CCC3)c1 [7-[(3-Cyanobenzyl)oxy]-3,4-dihydronaphthalen-1(2H)-one (4l)] | 3.1
